Reference: patent publication US9751837B2, “Kinase inhibitors” (RESPIVERT LIMITED, priority 2014, dated 2017)
Values after ≈ are worked out from the molar mass of the structure shown. Structures can show the parent of a compound that is named as a salt.

Assay: Solubility in fasted-state simulated colonic fluid (FaSSCoF) at pH 6.5
Format: physicochemical
Conditions: for solubility thermodynamic at 24 h: 25 °C, pH 6.5, fassgf or other biorelevant, thermodynamic from solid
Protocol: The solubilities of compounds of the invention in FaSSCoF at pH 6.5 are determined using a modification of a previously-reported procedure (Vertzoni, M., et al. Pharm. Res. 2010, 27, 2187-2196). In place of the bile salt extract employed in the original procedure (which extract is no longer available), the modified procedure uses a mixture of sodium taurochlorate (0.15 g), glycocholic acid (0.15 g), ursodeoxycholic acid (0.05 g), cholic acid (0.05 g), and glycodeoxycholic acid (0.05 g). These five bile acids are ground together with a mortar and pestle to produce a fine white powder that is incorporated into the FaSSCoF, as outlined below.
Tris(hydroxymethyl)aminomethane (Tris; 0.275 g) and maleic acid (0.44 g) are dissolved in water (35 mL) to give a solution whose pH is adjusted to 6.5 by treatment with 0.5M NaOH (ca. 12 mL). The solution is then made up to 50 mL with water. A portion of this Tris/maleate buffer solution (ca. 25 mL) is added to a 0.5 L round-bottomed flask, before being treated with 0.00565 g of the bile acid mixture described above. Solutions of phosphatidylcholine (0.0111 g) in DCM (0.15 mL) and palmitic acid (0.0013 g) in DCM (0.15 mL) are added, then the organic solvent is evaporated off under reduced pressure at 40° C. until a clear solution, with no perceptible DCM odour, is achieved. The volume of the evaporated solution is adjusted to 50 mL by addition of the remainder of Tris/maleate buffer, then BSA (0.115 g) is added, before being dissolved by gentle agitation.
Test compounds are suspended in the pH 6.5 FaSSCoF medium to give a maximum final concentration of 2-10 mg/mL. The suspensions are equilibrated at 25° C. for 24 h, before being filtered through a glass fibre C filter. The filtrates are then diluted as appropriate for injection and quantification by HPLC with reference to a standard. Different volumes of the standard, diluted and undiluted sample solutions are injected and the solubilities are calculated using the peak areas determined by integration of the peak found at the same retention time as the principal peak in the standard injection.

[1] = pH 6.5 FaSSCoF Solubility (mg/mL) Run 1
[2] = pH 6.5 FaSSCoF Solubility (mg/mL) Run 2

Row | Structure (SMILES) | solubility thermodynamic at 24 h [1] [µg/mL] | solubility thermodynamic at 24 h [2] [µg/mL] | pH 6.5 FaSSCoF Solubility (mg/mL) Run 1 (24 h, pH 6.5) [mg/mL]
1 | COc1c(NC(=O)Nc2ccc(Oc3ccnc(Nc4ccc(C(=O)O)c(N(C)C)c4)c3)c3ccccc23)cc(C(C)(C)C)cc1NS(C)(=O)=O [17(am), 4-[[4-[[4-[[5-tert-butyl-3-(methanesulfonamido)-2-methoxy-phenyl]carbamoylamino]-1-naphthyl]oxy]-2-pyridyl]amino]-2-(dimethylamino)benzoic acid] | 10 (≈ 14 µM) | 12 (≈ 16.8 µM) | 
2 | COc1cc(Nc2cc(Oc3ccc(NC(=O)Nc4cc(C(C)(C)C)cc(NS(C)(=O)=O)c4OC)c4ccccc34)ccn2)ccc1S(=O)(=O)CCCN1CCOCC1 [Example 20, N-(5-(tert-Butyl)-2-methoxy-3-(3-(4-((2-((3-methoxy-4-((3-morpholinopropyl)sulfonyl)phenyl)-amino)pyridin-4-yl)oxy)naphthalen-1-yl)ureido)phenyl)methanesulfonamide] | 4 (≈ 4.72 µM) |  | 
3 | COc1cc(Nc2cc(Oc3ccc(NC(=O)Nc4cc(C(C)(C)C)cc(NS(C)(=O)=O)c4OC)c4ccccc34)ccn2)ccc1C(=O)NCCN1CCN(C2CC2)CC1 [Example 26, 4-((4-((4-(3-(5-(tert-Butyl)-2-methoxy-3-(methylsulfonamido)phenyl)ureido)naphthalen-1-yl)oxy)pyridin-2-yl)amino)-N-(2-(4-cyclopropylpiperazin-1-yl)ethyl)-2-methoxybenzamide] | 11 (≈ 12.9 µM) | 11 (≈ 12.9 µM) | 
4 | COc1c(NC(=O)Nc2ccc(Oc3ccnc(Nc4ccc(P(C)(=O)O)c(N(C)C)c4)c3)c3ccccc23)cc(C(C)(C)C)cc1NS(C)(=O)=O [68 (sodium salt)] | 20 | 20 | 
5 | COc1cc(Nc2cc(Oc3ccc(NC(=O)Nc4cc(C(C)(C)C)cc(NS(C)(=O)=O)c4OC)c4ccccc34)ccn2)cc(OC)c1C(=O)NCC(CO)(CO)CO [17(cn), 4-((4-((4-(3-(5-(tert-Butyl)-2-methoxy-3-(methylsulfonamido)phenyl)ureido)naphthalen-1-yl)oxy)pyridin-2-yl)amino)-N-(3-hydroxy-2,2-bis(hydroxymethyl)propyl)-2,6-dimethoxybenzamide] | 25 (≈ 29.5 µM) | 17 (≈ 20.1 µM) | 
6 | COc1cc(Nc2cc(Oc3ccc(NC(=O)Nc4cc(C(C)(C)C)cc(NS(C)(=O)=O)c4OC)c4ccccc34)ccn2)cc(OC)c1C(=O)NCCOCCOCCOP(=O)(O)O [47 (sodium salt), 2-(2-(2-(4-((4-((4-(3-(5-(tert-butyl)-2-methoxy-3-(methylsulfonamido)phenyl)ureido)-naphthalen-1-yl)oxy)pyridin-2-yl)amino)-2,6-dimethoxybenzamido)ethoxy)ethoxy)ethyl dihydrogen phosphate] | > 1900 | > 2000 | 
7 | COc1c(NC(=O)Nc2ccc(Oc3ccnc(Nc4ccc(C(=O)NCCN5CCOCC5)c(N(C)C)c4)c3)c3ccccc23)cc(C(C)(C)C)cc1NS(C)(=O)=O [Example 21, 4-((4-((4-(3-(5-(tert-Butyl)-2-methoxy-3-(methylsulfonamido)phenyl)ureido)naphthalen-1-yl)oxy)pyridin-2-yl)amino)-2-(dimethylamino)-N-(2-morpholinoethyl)benzamide] | 10 (≈ 12.1 µM) | 10 (≈ 12.1 µM) | 

Other lines, results leading:

Row | solubility thermodynamic at 24 h [1] [µg/mL] | solubility thermodynamic at 24 h [2] [µg/mL] | pH 6.5 FaSSCoF Solubility (mg/mL) Run 1 (24 h, pH 6.5) [mg/mL] | Structure (SMILES)
8 | 1 | 1 |  | COc1cc(Nc2cc(Oc3ccc(NC(=O)Nc4cc(C(C)(C)C)cc(NS(C)(=O)=O)c4OC)c4ccccc34)ccn2)ccc1C(=O)NCCCCCCC(=O)O [34 (hydrochloride salt), 7-(4-((4-((4-(3-(5-(tert-Butyl)-2-methoxy-3-(methylsulfonamido)phenyl)ureido)naphthalen-1-yl)oxy)pyridin-2-yl)amino)-2-methoxybenzamido)heptanoic acid, hydrochloride salt]
9 | 29 | 28 |  | COc1cc(Nc2cc(Oc3ccc(NC(=O)Nc4cc(C(C)(C)C)cc(NS(C)(=O)=O)c4OC)c4ccccc34)ccn2)ccc1C(=O)NCCC(=O)O [17(ay) (hydrochloride salt), 3-(4-((4-((4-(3-(5-(tert-Butyl)-2-methoxy-3-(methylsulfonamido)phenyl)ureido)-naphthalen-1-yl)oxy)pyridin-2-yl)amino)-2-methoxybenzamido)propanoic acid]
10 | 5 (≈ 6.04 µM) | 5 (≈ 6.04 µM) |  | COc1cc(Nc2cc(Oc3ccc(NC(=O)Nc4cc(C(C)(C)C)cc(NS(C)(=O)=O)c4OC)c4ccccc34)ccn2)ccc1C(=O)NCC[N+]1([O-])CCOCC1 [Example 33, 4-(2-(4-((4-((4-(3-(5-(tert-Butyl)-2-methoxy-3-(methylsulfonamido)phenyl)ureido)naphthalen-1-yl)oxy)pyridin-2-yl)amino)-2-methoxybenzamido)ethyl)morpholine 4-oxide]
11 |  |  | >4.7 | COc1cc(Nc2cc(Oc3ccc(NC(=O)Nc4cc(C(C)(C)C)cc(NS(C)(=O)=O)c4OC)c4ccccc34)ccn2)ccc1C(=O)NCCOCCOCCOP(=O)(O)O [19 (sodium salt), 2-(2-(2-(4-((4-((4-(3-(5-(tert-Butyl)-2-methoxy-3-(methylsulfonamido)phenyl)ureido)-naphthalen-1-yl)oxy)pyridin-2-yl)amino)-2-methoxybenzamido)ethoxy)ethoxy)ethyl dihydrogen phosphate]
12 | > 3500 | > 4200 |  | COc1cc(Nc2cc(Oc3ccc(NC(=O)Nc4cc(C(C)(C)C)cc(NS(C)(=O)=O)c4OC)c4ccccc34)ccn2)ccc1C(=O)NCCOP(=O)(O)O [35 (sodium salt), 2-(4-((4-((4-(3-(5-(tert-Butyl)-2-methoxy-3-(methylsulfonamido)phenyl)ureido)naphthalen-1-yl)oxy)pyridin-2-yl)amino)-2-methoxybenzamido)ethyl dihydrogen phosphate]
13 | 1310 |  |  | COc1cc(Nc2cc(Oc3ccc(NC(=O)Nc4cc(C(C)(C)C)cc(NS(C)(=O)=O)c4OC)c4ccccc34)ccn2)ccc1C(=O)N[C@@H](CO)C(=O)O [17(bj) (sodium salt), (S)-2-(4-((4-((4-(3-(5-(tert-Butyl)-2-methoxy-3-(methylsulfonamido)phenyl)ureido)-naphthalen-1-yl)oxy)pyridin-2-yl)amino)-2-methoxybenzamido)-3-hydroxypropanoic acid]
14 | 9 (≈ 10.5 µM) | 8 (≈ 9.29 µM) |  | COc1cc(Nc2cc(Oc3ccc(NC(=O)Nc4cc(C(C)(C)C)cc(NS(C)(=O)=O)c4OC)c4ccccc34)ccn2)ccc1C(=O)N[C@H]1C(O)O[C@H](CO)[C@@H](O)[C@@H]1O (stereo partly drawn) [17(br), 4-((4-((4-(3-(5-(tert-Butyl)-2-methoxy-3-(methylsulfonamido)phenyl)ureido)naphthalen-1-yl)oxy)pyridin-2-yl)amino)-2-methoxy-N-((3R,4R,5S,6R)-2,4,5-trihydroxy-6-(hydroxymethyl)tetrahydro-2H-pyran-3-yl)benzamide]
15 | 3 (≈ 3.28 µM) | 1 (≈ 1.09 µM) |  | COc1cc(Nc2cc(Oc3ccc(NC(=O)Nc4cc(C(C)(C)C)cc(NS(C)(=O)=O)c4OC)c4ccccc34)ccn2)ccc1C(=O)NCCC(=O)N1C[C@H](O)[C@@H](O)[C@H](O)[C@H]1CO [17(cf), 4-((4-((4-(3-(5-(tert-Butyl)-2-methoxy-3-(methylsulfonamido)phenyl)ureido)naphthalen-1-yl)oxy)pyridin-2-yl)amino)-2-methoxy-N-(3-oxo-3-((2R,3R,4R,5S)-3,4,5-trihydroxy-2-(hydroxymethyl)piperidin-1-yl)propyl)benzamide]
16 | 6 | 6 |  | COc1cc(Nc2cc(Oc3ccc(NC(=O)Nc4cc(C(C)(C)C)cc(NS(C)(=O)=O)c4OC)c4ccccc34)ccn2)ccc1C(=O)NCCCC[C@H](N)C(=O)O [17(bu) (dihydrochloride salt), (S)-2-Amino-6-(4-((4-((4-(3-(5-(tert-butyl)-2-methoxy-3-(methylsulfonamido)phenyl)-ureido)naphthalen-1-yl)oxy)pyridin-2-yl)amino)-2-methoxybenzamido)hexanoic acid]
